Results on 19 compounds are retold here after patent US9580413B2, “Substituted pyrrolidines as ROS tyrosine kinase inhibitors” (NIPPON SHINYAKU CO., LTD., priority 2012, dated 2017).

As usually defined, the IC50 is the concentration that inhibits the measured activity by half. A higher IC50 goes with weaker potency.

Each structure is given as a SMILES string. Where a name gives a salt, the structure may show the parent alone.

One assay has as its target T1, ROS tyrosine kinase (Homo sapiens, UniProt P08922).
T1 construct: purchased Carna Biosciences, Inc
Description: ROS tyrosine kinase inhibitory activity test (ELISA). The class given is biochemical, humans. The note with it: 25 μM ATP substrate solution, 30° C., one hour. The gist of the method:
(§1)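 Human recombinant ROS or JAK2 kinase (added as a 0.25 nM solution) reacted for 1 h at 30 °C in 15 mM Tris-Cl pH 7.5, 0.01% Tween-20, 1 mM DTT with compound from DMSO. Substrate phosphotyrosine was detected by HRP anti-phosphotyrosine antibody and TMB at A450, and IC50 came from non-linear regression.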
Background: ELISA stands for enzyme-linked immunosorbent assay.

For a further assay, the target named is T2, JAK2 tyrosine kinase (Homo sapiens, UniProt O60674).
T2 construct: purchased Carna Biosciences, Inc
Description: JAK2 tyrosine kinase inhibitory activity test (ELISA). In kind it is biochemical, humans. The note with it: 25 μM ATP substrate solution, 30° C., one hour. The gist of the method: as §1

Another assay has as its target T3, FIG-ROS/BaF3 cell (Homo sapiens, UniProt P08922).
T3 construct: fused on or other part: Q9HD26 (Golgi-associated PDZ and coiled-coil motif-containing protein)
The assay can be described thus: Proliferation inhibitory activity test against FIG-ROS/BaF3 cell. In kind it is cell-based. The conditions noted are these: 3 days incubation, cell counting kit; read-out: Proliferation inhibitory activity against FIG-ROS/BaF3 cell (IC50). As for the experimental part: A BaF3 cell which had been transformed by introducing the FIG-ROS fusion gene (derived from U118MG human glioma cell) (FIG-ROS/BaF3 Cell) was prepared on a culture medium, seeded on a 96-well plate in the number of 1×10^3/100 μL per well, and then allowed to stand in a CO2 incubator (at 37° C. and 5% CO2). As the culture medium, 10% FBS (fetal bovine serum)-incorporated RPMI-1640 was used.
2. Proliferation Inhibitory Activity Test:
A test substance was dissolved in dimethyl sulfoxide (DMSO) to 10 mM and further diluted with DMSO to 100-fold to prepare a 100 μM solution. This was diluted with a 1% DMSO-incorporated medium to concentrations of 10-fold of the concentration to be measured (10,000, 1,000, 100, 10, and 1 nM). Each of the medicine solutions was added at 11 μL per well and mixed. To a control having no medicine added thereto, a 1% DMSO-incorporated medium was added, and incubated in a CO2 incubator (at 37° C. and 5% CO2) for 3 days. After completion of the incubation, the number of live cells was counted using a cell counting kit. First of all, each cell counting kit solution was added at 5 μL per well and mixed, and incubated in a CO2 incubator (at 37° C. and 5% CO2) for 4 hours. An absorbance at 450 nm was measured with a microplate reader (Model 3550, manufactured by BIO-RAD, Benchmark, manufactured by BIO-RAD, or iMARK, manufactured by BIO-RAD) with a reference wavelength of 650 nm.
3. Analysis of Measurement Results:
A non-linear regression analysis was performed for the measured absorbance with an SAS system (SAS Institute Inc.), and a concentration of each of the test substances of inhibiting the cell proliferation at 50% (IC50) was calculated. The proliferation inhibitory activity (IC50, nM) of each of the test substances against the FIG-ROS/BaF3 cell is shown in Table 9.
A general note: Formazan colour is commonly taken as a measure of viable cells.

The test system of assay [1] is non-small cell lung cancer with ROS fusion gene positive. The conditions noted are these: clinical application, Non-Patent Document 22; cited from earlier work.

T2 sequence (O60674 whole entry): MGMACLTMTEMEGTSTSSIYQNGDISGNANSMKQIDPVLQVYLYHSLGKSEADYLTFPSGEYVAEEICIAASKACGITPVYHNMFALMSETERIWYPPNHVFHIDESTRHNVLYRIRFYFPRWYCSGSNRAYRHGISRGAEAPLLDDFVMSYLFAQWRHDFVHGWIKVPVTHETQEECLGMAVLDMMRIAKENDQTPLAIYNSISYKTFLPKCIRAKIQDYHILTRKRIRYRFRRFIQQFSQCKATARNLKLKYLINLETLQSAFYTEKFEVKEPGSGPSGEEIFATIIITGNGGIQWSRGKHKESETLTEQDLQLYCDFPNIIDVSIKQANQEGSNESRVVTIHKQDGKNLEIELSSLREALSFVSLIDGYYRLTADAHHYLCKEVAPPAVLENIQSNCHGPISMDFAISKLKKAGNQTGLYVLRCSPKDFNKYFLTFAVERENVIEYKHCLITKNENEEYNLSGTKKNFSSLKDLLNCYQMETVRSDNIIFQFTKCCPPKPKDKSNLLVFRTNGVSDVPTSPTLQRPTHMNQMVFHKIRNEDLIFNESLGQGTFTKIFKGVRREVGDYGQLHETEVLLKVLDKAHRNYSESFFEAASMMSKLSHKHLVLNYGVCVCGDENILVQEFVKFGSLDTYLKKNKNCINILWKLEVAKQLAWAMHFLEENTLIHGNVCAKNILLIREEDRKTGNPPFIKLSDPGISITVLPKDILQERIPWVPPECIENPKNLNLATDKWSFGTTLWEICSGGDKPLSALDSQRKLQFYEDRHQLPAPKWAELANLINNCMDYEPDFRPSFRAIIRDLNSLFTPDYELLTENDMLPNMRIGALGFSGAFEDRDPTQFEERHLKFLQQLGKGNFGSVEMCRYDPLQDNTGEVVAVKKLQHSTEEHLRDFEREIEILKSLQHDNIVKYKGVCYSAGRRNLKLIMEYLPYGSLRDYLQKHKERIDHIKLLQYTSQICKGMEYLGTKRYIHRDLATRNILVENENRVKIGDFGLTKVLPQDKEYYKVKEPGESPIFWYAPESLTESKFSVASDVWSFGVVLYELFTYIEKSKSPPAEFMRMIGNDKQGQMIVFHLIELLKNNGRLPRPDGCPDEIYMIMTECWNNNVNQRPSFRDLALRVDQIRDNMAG
T1 sequence (P08922 28-2347): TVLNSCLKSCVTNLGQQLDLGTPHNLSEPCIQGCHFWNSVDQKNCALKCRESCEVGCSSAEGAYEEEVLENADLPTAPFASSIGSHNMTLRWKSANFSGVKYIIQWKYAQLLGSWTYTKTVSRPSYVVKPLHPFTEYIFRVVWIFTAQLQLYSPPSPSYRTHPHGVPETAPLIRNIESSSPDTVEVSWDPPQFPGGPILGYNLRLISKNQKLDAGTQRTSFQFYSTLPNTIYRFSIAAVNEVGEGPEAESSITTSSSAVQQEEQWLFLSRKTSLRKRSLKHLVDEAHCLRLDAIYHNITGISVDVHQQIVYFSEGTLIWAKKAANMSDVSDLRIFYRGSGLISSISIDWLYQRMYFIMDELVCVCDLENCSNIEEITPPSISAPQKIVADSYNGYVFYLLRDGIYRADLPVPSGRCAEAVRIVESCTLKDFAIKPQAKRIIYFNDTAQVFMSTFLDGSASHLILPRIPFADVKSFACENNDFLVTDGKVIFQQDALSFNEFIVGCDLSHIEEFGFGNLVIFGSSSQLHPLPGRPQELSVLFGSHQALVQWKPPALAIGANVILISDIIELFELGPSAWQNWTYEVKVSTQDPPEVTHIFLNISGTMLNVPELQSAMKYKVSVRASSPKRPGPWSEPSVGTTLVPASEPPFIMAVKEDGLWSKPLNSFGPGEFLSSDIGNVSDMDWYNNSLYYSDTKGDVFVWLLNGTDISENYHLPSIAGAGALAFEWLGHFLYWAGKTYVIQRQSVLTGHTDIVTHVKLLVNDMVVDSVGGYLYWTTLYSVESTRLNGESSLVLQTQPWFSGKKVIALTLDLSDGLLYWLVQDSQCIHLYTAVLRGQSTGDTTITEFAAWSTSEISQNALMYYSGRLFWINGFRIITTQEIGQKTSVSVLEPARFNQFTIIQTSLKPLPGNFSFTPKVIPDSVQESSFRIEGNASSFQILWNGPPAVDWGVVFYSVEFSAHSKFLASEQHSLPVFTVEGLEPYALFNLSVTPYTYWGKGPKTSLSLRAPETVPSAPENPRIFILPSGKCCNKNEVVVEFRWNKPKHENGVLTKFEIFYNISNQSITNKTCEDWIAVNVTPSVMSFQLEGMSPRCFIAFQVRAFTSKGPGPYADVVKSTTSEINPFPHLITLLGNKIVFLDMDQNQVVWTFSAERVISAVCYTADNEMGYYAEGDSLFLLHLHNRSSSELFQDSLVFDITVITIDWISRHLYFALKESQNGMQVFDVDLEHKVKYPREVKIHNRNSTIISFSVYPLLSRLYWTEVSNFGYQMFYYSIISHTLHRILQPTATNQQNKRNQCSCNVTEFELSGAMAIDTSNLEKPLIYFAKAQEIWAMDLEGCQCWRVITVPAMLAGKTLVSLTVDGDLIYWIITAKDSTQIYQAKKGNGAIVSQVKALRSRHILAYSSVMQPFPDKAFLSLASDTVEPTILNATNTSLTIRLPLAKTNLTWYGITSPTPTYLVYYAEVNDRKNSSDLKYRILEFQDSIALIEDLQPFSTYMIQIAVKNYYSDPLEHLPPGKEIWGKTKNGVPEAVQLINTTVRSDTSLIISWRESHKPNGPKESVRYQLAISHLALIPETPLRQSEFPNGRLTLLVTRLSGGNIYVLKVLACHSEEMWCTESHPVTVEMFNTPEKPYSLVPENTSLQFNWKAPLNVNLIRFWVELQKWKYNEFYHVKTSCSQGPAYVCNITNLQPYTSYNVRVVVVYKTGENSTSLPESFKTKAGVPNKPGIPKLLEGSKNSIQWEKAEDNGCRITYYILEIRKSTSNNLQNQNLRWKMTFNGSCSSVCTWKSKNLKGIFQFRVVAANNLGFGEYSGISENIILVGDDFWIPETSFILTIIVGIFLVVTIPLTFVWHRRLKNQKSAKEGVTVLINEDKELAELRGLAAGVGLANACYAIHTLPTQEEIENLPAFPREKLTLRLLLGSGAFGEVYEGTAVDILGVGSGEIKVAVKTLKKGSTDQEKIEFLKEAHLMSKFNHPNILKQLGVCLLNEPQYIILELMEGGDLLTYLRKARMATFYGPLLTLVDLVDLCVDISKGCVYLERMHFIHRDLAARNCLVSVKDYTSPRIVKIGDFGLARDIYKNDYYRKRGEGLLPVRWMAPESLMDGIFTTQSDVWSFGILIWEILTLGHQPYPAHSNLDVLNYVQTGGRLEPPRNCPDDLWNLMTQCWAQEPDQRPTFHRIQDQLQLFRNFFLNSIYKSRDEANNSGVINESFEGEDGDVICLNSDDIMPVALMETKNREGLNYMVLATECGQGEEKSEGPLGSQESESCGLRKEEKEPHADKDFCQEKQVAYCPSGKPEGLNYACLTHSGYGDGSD

On to `COc1c(Nc2ncc(C#N)s2)nc(N2CCCC2c2ccc(C)cc2)nc1-c1ccc(F)nc1` (stereo not shown) [Example 50, 2-({6-(6-Fluoropyridin-3-yl)-5-methoxy-2-[2-(4-methylphenyl)pyrrolidin-1-yl]pyrimidin-4-yl}amino)-1,3-thiazole-5-carbonitrile], for which the IC50 against ROS tyrosine kinase is 12 nM; against JAK2 tyrosine kinase, not below 1000 nM. Further, the GI50 at FIG-ROS/BaF3 cell turned out to be 9.4 nM.

With `CCOC(=O)c1cnc(Nc2cncc(N3CCCC3c3ccc(C)cc3)n2)s1` (stereo not shown) [Example 51, Ethyl 2-({6-[2-(4-methylphenyl)pyrrolidin-1-yl]pyrazin-2-yl}amino)-1,3-thiazole-5-carboxylate], the IC50 against ROS tyrosine kinase is 88 nM; on JAK2 tyrosine kinase, 930 nM. Moreover, the GI50 on FIG-ROS/BaF3 cell was determined as 160 nM.

Take `Cc1ccc([C@@H]2CCCN2c2nc(Nc3ncc(C#N)s3)c(C)c(C(=O)NC3CCN(C)CC3)n2)cc1` [Example 54, 6-[(5-Cyano-1,3-thiazol-2-yl)amino]-5-methyl-2-[(2S)-2-(4-methylphenyl)pyrrolidin-1-yl]-N-(l-methylpiperidin-4-yl)pyrimidine-4-carboxamide]: the IC50 came out at 3.9 nM at ROS tyrosine kinase and 190 nM on JAK2 tyrosine kinase. In addition, on FIG-ROS/BaF3 cell, the GI50 came to 0.4 nM.

Regarding `CNC(=O)c1cc(N2CCC[C@H]2c2ccc(C)cc2)nc(Nc2ncc(C#N)s2)c1C` [Example 55, 2-[(5-Cyano-1,3-thiazol-2-yl)amino]-N,3-dimethyl-6-[(2S)-2-(4-methylphenyl)pyrrolidin-1-yl]pyridine-4-carboxamide], the IC50 at ROS tyrosine kinase came to 0.6 nM; at JAK2 tyrosine kinase, 24 nM. Further, the GI50 at FIG-ROS/BaF3 cell came out at 0.3 nM.

Consider `COc1c(C)nc(N2CCC[C@H]2c2ccc(C)cc2)nc1Nc1ncc(F)s1` [Example 56, N-(5-Fluoro-1,3-thiazol-2-yl)-5-methoxy-6-methyl-2-[(2S)-2-(4-methylphenyl)pyrrolidin-1-yl]pyrimidine-4-amine], for which the IC50 on ROS tyrosine kinase was 6.7 nM; at JAK2 tyrosine kinase, more than 1000 nM. The GI50 at FIG-ROS/BaF3 cell was 8.2 nM.

On to `CCc1c(COC)nc(N2CCC[C@H]2c2ccc(C)cc2)nc1Nc1ncc(C#N)s1` [Example 57, 2-({5-Ethyl-6-(methoxymethyl)-2-[(2S)-2-(4-methylphenyl)pyrrolidin-1-yl]pyrimidin-4-yl}amino)-1,3-thiazole-5-carbo nitrile], for which the results for the IC50 against ROS tyrosine kinase and at JAK2 tyrosine kinase were 2.7 nM and more than 1000 nM, respectively. For the same compound, at FIG-ROS/BaF3 cell, the GI50 came out at 1.8 nM.

`COc1c(Nc2ncc(C#N)s2)nc(N2CCC[C@H]2c2ccc(C)cc2)nc1-c1cnn(CCO)c1` [Example 59, 2-({6-[1-(2-Hydroxyethyl)-1H-pyrazol-4-yl]-5-methoxy-2-[(2S)-2-(4-methylphenyl)pyrrolidin-1-yl]pyrimidin-4-yl}amino)-1,3-thiazole-5-carbonitrile]: the values for the IC50 at ROS tyrosine kinase and against JAK2 tyrosine kinase were 1.5 nM and 190 nM, respectively. For the same compound, the GI50 on FIG-ROS/BaF3 cell was determined as 1.3 nM.

For `COc1c(Nc2ncc(C#N)s2)nc(N2CCC[C@H]2c2ccc(C)cc2)nc1-c1cnc(C)nc1` [Example 60, 2-({5-Methoxy-2′-methyl-2-[(2S)-2-(4-methylphenyl)pyrrolidin-1-yl]-4,5′-bipyrimidin-6-yl}amino)-1,3-thiazole-5-carbonitrile], the IC50 at ROS tyrosine kinase turned out to be 2.3 nM; at JAK2 tyrosine kinase, 740 nM. Moreover, the GI50 at FIG-ROS/BaF3 cell was 2.9 nM.

Turning to `COc1c(Nc2ncns2)nc(N2CCC[C@H]2c2ccc(C)cc2)nc1-c1cnn(CCO)c1` [Example 61, 2-(4-{5-Methoxy-2-[(2S)-2-(4-methylphenyl)pyrrolidin-1-yl]-6-(1,2,4-thiadiazol-5-ylamino)pyrimidin-4-yl}-1H-pyrazol-1-yl)ethanol], the IC50 is 2.5 nM at ROS tyrosine kinase and 490 nM on JAK2 tyrosine kinase. In addition, the GI50 on FIG-ROS/BaF3 cell was 1 nM.

Consider `COc1c(Nc2ncc(C#N)s2)nc(N2CCC[C@H]2c2ccc(C)cc2)nc1C(=O)N[C@H]1CC[C@H](O)CC1` [Example 62, 6-[(5-Cyano-1,3-thiazol-2-yl)amino]-N-(trans-4-hydroxycyclohexyl)-5-methoxy-2-[(2S)-2-(4-methylphenyl)pyrrolidin-1-yl]pyrimidine-4-carboxamide], for which the values for the IC50 at ROS tyrosine kinase and on JAK2 tyrosine kinase were 2.1 nM and more than 1000 nM, respectively. For the same compound, the GI50 at FIG-ROS/BaF3 cell was 2.6 nM.

In the case of `COc1c(Nc2ncc(C#N)s2)nc(N2CCC[C@H]2c2ccc(C)cc2)nc1C(=O)N[C@H]1CC[C@H](C(=O)O)CC1` [Example 63, Trans-4-[({6-[(5-cyano-1,3-thiazol-2-yl)amino]-5-methoxy-2-[(2S)-2-(4-methylphenyl)pyrrolidin-1-yl]pyrimidin-4-yl}carbonyl)amino]cyclohexanecarboxylic acid], the figures for the IC50 at ROS tyrosine kinase and against JAK2 tyrosine kinase were 0.3 nM and 120 nM, respectively. In addition, the GI50 on FIG-ROS/BaF3 cell was determined as 3.5 nM.

Take `COCCNC(=O)c1nc(N2CCC[C@H]2c2ccc(C)cc2)nc(Nc2ncc(C#N)s2)c1OC` [Example 64, 6-[(5-Cyano-1,3-thiazol-2-yl)amino]-5-methoxy-N-(2-methoxyethyl)-2-[(2S)-2-(4-methylphenyl)pyrrolidin-1-yl]pyrimidine-4-carboxamide]: the IC50 against ROS tyrosine kinase was 2.6 nM; at JAK2 tyrosine kinase it was more than 1000 nM. Moreover, the GI50 at FIG-ROS/BaF3 cell came to 1.5 nM.

As to `COc1c(Nc2ncc(C#N)s2)nc(N2CCC[C@H]2c2ccc(C)cc2)nc1-c1ccc(O)nc1` [Example 65, 2-({6-(6-Hydroxypyridin-3-yl)-5-methoxy-2-[(2S)-2-(4-methylphenyl)pyrrolidin-1-yl]pyrimidin-4-yl}amino)-1,3-thiazole-5-carbonitrile], the IC50 was 1.3 nM against ROS tyrosine kinase and 260 nM at JAK2 tyrosine kinase. In addition, the GI50 at FIG-ROS/BaF3 cell worked out at 1.9 nM.

As for `CCc1c(Nc2ncc(C#N)s2)nc(N2CCC[C@H]2c2ccc(C)cc2)nc1C(=O)NS(C)(=O)=O` [Example 67, 6-[(5-Cyano-1,3-thiazol-2-yl)amino]-5-ethyl-2-[(2S)-2-(4-methylphenyl)pyrrolidin-1-yl]-N-(methylsulfonyl)pyrimidine-4-carboxamide], the IC50 against ROS tyrosine kinase was 1.5 nM; on JAK2 tyrosine kinase, 370 nM. Further, on FIG-ROS/BaF3 cell, the GI50 worked out at 2.1 nM.

As to `Cc1ccc([C@@H]2CCCN2c2cc(C(=O)N[C@H]3CC[C@H](O)CC3)c(C)c(Nc3ncc(C#N)s3)n2)cc1` [Example 68, 2-[(5-Cyano-1,3-thiazol-2-yl)amino]-N-(4-hydroxycyclohexyl)-3-methyl-6-[(2S)-2-(4-methylphenyl)pyrrolidin-1-yl]pyridine-4-carboxamide], the IC50 against ROS tyrosine kinase is 0.76 nM; on JAK2 tyrosine kinase, 22 nM. The GI50 on FIG-ROS/BaF3 cell was determined as 0.71 nM.

For `Cc1ccc([C@@H]2CCCN2c2cc(-c3cnn(C)c3)cc(Nc3ncns3)n2)cc1` [Example 69, 6-[(2S)-2-(4-Methylphenyl)pyrrolidin-1-yl]-4-(1-methyl-1H-pyrazol-4-yl)-N-(1,2,4-thiadiazol-5-yl)pyridine-2-amine], the IC50 on ROS tyrosine kinase was found to be 11 nM; against JAK2 tyrosine kinase it was 17 nM. In addition, at FIG-ROS/BaF3 cell, the GI50 is 6.9 nM.

With `CCc1c(C)nc(N2CCC[C@H]2c2ccc(C)cc2)nc1Nc1ncc(C#N)s1` [Example 70, 2-({5-Ethyl-6-methyl-2-[(2S)-2-(4-methylphenyl)pyrrolidin-1-yl]pyrimidin-4-yl}amino)-1,3-thiazole-5-carbonitrile maleate], the IC50 was 2.9 nM at ROS tyrosine kinase and more than 1000 nM against JAK2 tyrosine kinase. The GI50 on FIG-ROS/BaF3 cell is 1.7 nM.

With `CC(=O)N1CCc2nc(N3CCC[C@H]3c3ccc(C)cc3)nc(Nc3ncc(C#N)s3)c2C1` [Example 71, 2-({6-Acetyl-2-[(2S)-2-(4-methylphenyl)pyrrolidin-1-yl]-5,6,7,8-tetrahydropyrido[4,3-d]pyrimidin-4-yl}amino)-1,3-thiazole-5-carbonitrile], the IC50 was found to be 1.2 nM on ROS tyrosine kinase and 150 nM against JAK2 tyrosine kinase. Further, on FIG-ROS/BaF3 cell, the GI50 was 2 nM.

On to `C[C@@H](Oc1cc(-c2cnn(C3CCNCC3)c2)cnc1N)c1c(Cl)ccc(F)c1Cl` [crizotinib], for which the “effectiveness for patients of non-small cell lung cancer with ROS fusion gene positive” value in assay [1] is given as “effective”.
